According to patent US20230405316A1, “COMPOSITIONS, SYSTEMS, AND METHODS FOR TREATING CANCER USING TUMOR TREATING FIELDS AND VEGF INHIBITORS” (Novocure Gmbh, priority 2022, published 2023):
Structures can show the parent of a compound that is named as a salt.

Assays:
[1] = target: VEGFR-1 (Homo sapiens, UniProt P17948); settings: cited from earlier work
[2] = target: VEGFR-2 (Homo sapiens, UniProt P35968); settings: cited from earlier work
[3] = target: VEGFR-3 (Homo sapiens, UniProt P35916); settings: cited from earlier work
Sequence of VEGFR-3 (P35916 25-1363, species assumed): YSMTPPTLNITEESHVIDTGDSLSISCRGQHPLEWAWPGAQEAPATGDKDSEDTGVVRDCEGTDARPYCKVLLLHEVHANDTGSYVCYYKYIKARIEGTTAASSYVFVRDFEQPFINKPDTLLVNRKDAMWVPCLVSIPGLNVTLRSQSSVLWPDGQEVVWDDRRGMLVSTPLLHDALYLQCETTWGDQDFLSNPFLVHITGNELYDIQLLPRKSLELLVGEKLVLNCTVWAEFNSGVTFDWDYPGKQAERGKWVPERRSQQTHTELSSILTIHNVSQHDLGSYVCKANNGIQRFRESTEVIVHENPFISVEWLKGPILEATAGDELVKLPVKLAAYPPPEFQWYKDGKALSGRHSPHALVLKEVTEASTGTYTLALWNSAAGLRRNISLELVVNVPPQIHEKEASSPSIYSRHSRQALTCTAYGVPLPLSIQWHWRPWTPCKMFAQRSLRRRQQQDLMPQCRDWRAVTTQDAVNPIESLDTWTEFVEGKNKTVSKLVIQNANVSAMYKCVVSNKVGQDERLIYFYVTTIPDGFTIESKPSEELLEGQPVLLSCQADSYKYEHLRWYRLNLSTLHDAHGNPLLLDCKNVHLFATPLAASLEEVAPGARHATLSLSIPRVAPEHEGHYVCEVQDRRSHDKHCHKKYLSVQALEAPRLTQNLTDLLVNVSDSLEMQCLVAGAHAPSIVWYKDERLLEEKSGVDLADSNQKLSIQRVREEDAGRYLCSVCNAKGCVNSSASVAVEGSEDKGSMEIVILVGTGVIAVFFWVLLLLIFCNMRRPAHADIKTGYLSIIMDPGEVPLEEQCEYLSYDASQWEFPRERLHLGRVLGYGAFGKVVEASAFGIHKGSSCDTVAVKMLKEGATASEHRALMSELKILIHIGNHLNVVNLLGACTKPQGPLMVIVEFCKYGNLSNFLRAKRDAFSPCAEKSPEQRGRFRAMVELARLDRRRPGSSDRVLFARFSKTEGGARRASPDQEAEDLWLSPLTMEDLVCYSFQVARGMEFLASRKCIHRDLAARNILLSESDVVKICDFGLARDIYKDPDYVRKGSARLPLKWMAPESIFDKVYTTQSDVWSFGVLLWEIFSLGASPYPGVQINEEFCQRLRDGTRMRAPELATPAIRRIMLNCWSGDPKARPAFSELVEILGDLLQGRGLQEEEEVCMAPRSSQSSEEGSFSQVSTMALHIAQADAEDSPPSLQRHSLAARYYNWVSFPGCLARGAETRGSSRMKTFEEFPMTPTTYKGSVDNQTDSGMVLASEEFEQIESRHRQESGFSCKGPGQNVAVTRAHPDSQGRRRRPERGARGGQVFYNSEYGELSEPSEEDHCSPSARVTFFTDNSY

[4] = system: ovarian carcinoma cell line (A2780); experiment: Concomitant therapy with TTFields and lenvatinib, cell count and apoptosis; format: cell-based; settings: A2780 cells, 4 μM Lenvatinib combined with TTFields vs either therapy alone
Protocol: FIG. 5 contains photomicrographs of A2780 cells following TTFields treatment alone, treatment with 4 μM Lenvatinib, and concomitant therapy with both TTFields and 4 μM Lenvatinib.
In particular, the combinatorial effect of TTFields and lenvatinib was examined in an ovarian carcinoma cell line (A2780).

Sequence of VEGFR-2 (P35968 20-1356, species assumed): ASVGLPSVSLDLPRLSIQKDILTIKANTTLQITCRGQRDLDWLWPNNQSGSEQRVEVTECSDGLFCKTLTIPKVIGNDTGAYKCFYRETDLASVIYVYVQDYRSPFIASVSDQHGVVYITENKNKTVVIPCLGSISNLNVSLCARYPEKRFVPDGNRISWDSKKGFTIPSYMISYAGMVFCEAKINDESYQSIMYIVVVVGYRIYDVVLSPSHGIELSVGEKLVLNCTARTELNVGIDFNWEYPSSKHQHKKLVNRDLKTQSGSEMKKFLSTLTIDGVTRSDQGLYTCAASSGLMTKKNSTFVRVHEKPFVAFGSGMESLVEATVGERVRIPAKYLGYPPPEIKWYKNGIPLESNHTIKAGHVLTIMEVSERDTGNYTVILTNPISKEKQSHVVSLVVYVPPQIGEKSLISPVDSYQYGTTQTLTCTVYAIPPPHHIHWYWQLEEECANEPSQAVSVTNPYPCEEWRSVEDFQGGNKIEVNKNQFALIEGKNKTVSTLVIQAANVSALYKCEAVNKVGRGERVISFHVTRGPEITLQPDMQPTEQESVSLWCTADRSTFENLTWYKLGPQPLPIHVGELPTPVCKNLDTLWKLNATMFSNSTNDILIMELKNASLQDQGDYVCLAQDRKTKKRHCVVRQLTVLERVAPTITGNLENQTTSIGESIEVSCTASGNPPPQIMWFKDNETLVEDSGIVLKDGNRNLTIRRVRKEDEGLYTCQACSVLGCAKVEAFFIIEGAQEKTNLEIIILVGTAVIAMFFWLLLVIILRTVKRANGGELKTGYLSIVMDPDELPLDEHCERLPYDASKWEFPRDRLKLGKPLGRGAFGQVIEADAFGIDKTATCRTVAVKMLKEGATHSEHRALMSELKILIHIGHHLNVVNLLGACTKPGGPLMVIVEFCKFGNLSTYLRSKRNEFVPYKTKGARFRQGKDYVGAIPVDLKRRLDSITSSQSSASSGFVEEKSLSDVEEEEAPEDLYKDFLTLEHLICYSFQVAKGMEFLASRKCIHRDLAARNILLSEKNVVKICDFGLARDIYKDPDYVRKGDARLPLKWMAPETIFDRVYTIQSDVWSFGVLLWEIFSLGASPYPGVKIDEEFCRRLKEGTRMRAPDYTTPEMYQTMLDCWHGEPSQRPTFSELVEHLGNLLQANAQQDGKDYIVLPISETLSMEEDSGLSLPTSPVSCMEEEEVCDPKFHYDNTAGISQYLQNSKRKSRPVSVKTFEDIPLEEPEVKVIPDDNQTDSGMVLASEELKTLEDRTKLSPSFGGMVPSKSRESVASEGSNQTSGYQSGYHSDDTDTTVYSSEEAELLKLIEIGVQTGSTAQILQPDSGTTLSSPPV
Sequence of VEGFR-1 (P17948 27-1338, species assumed): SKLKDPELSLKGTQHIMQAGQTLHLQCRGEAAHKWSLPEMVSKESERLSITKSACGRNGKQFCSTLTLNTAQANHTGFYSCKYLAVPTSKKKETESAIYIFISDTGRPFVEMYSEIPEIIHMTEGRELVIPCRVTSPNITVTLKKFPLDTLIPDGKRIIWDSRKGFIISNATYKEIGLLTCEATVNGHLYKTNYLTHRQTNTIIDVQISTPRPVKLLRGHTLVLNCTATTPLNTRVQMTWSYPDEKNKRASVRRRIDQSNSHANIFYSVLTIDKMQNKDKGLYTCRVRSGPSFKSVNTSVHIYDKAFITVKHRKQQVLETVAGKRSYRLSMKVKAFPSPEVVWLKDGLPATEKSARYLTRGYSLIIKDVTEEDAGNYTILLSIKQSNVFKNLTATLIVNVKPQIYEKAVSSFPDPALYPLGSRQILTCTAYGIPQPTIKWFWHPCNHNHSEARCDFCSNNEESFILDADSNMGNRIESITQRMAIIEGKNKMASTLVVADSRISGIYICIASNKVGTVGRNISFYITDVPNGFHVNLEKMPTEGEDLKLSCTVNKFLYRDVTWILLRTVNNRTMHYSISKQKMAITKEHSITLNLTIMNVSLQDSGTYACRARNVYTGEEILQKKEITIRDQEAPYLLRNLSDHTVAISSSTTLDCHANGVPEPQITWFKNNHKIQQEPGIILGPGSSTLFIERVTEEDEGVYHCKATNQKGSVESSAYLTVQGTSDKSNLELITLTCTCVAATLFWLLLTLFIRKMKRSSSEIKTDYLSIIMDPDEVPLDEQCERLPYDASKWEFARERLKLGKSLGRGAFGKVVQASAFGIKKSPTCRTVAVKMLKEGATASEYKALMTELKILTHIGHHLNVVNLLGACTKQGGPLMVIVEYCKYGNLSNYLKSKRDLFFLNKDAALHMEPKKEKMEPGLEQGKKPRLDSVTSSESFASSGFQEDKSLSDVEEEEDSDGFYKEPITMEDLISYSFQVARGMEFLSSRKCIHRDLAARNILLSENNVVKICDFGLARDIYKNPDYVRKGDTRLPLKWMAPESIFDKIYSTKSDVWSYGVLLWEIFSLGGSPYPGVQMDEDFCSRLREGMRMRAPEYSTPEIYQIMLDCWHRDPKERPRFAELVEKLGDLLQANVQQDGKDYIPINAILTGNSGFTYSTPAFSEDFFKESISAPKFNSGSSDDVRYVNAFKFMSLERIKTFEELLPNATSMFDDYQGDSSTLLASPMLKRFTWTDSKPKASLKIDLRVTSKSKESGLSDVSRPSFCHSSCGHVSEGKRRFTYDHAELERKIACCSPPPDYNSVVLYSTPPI

SMILES	IC50 [2] [nM]	also measured
COc1cc2c(Oc3ccc4[nH]c(C)cc4c3F)ccnc2cc1OCC1(N)CC1 [Anlotinib]	< 1	IC50 for VEGFR-1 [1]: Does not bind; IC50 for VEGFR-3 [3]: Does not bind
COc1cc2nccc(Oc3ccc(NC(=O)C4(C(=O)Nc5ccc(F)cc5)CC4)cc3)c2cc1OC [Cabozantinib]		IC50 for VEGFR-3 [3]: Does not bind
COc1cc2nccc(Oc3ccc(NC(=O)Nc4ccc(F)cc4F)c(F)c3)c2cc1OC [Ki8751]	0.9	
COc1cc2nccc(Oc3ccc(NC(=O)NC4CC4)c(Cl)c3)c2cc1C(N)=O [Lenvatinib]		effect of concomitant therapy on apoptosis [4]: enhanced effect over either therapy alone; effect of concomitant therapy on cell count [4]: enhanced effect over either therapy alone
Cc1c(C(=O)Nc2ccc(Oc3ccnc4cc(OCC(C)(C)O)ccc34)c(F)c2)c(=O)n(-c2ccccc2)n1C [Ningetinib]	1.9	
Cn1cc(-c2ccc3c(c2)ncn3-c2cc(NS(=O)(=O)C3CC3)cc(-c3ccc(F)cc3F)c2)cn1 [ODM-203]	9	IC50 [1]: 26 nM; IC50 [3]: 5 nM
COc1cc2c(cc1F)C(c1ccccc1Cl)=Nc1c(n[nH]c1C)N2 [R1530]	10	
Cc1[nH]c(/C=C2\C(=O)Nc3ccc(F)cc32)c(C)c1C(=O)NC[C@H](O)CN1CCOCC1 [SU14813]	50	IC50 [1]: 2 nM
CNC(=O)c1cc2c(Oc3ccc(NC(=O)C4(C(=O)Nc5ccc(F)cc5)CC4)cc3)ccnc2cc1OC [XL092]	1.6	
Cc1cc(F)c(Nc2ncnc3cc(OCc4ccccc4)ccc23)cc1O [ZM 323881 HCl]	< 2	
